We go through 14 compounds from BindingDB's records for patent WO2025051920 (Sanofi-Aventis Deutschland, 2025).

Bridge positions count the residues as written; N and C are the ends. Square brackets hold non-standard residues; d marks the D form. Peptide text beside a SMILES is read from it. 2Nal = N[C@@H](Cc1ccc2ccccc2c1)C(=O)O; Thp = NC1(C(=O)O)CCOCC1

The target of test [1] is T1, Interleukin-23 subunit alpha/receptor (UniProt Q9NPF7+Q5VWK5).
T1 sequence (Q9NPF7 whole entry): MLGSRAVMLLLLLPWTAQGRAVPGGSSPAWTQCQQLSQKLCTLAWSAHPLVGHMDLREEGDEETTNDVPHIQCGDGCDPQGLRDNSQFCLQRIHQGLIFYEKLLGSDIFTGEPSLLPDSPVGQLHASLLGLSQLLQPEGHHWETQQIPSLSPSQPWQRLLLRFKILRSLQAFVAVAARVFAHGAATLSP
T1 sequence (Q5VWK5 whole entry): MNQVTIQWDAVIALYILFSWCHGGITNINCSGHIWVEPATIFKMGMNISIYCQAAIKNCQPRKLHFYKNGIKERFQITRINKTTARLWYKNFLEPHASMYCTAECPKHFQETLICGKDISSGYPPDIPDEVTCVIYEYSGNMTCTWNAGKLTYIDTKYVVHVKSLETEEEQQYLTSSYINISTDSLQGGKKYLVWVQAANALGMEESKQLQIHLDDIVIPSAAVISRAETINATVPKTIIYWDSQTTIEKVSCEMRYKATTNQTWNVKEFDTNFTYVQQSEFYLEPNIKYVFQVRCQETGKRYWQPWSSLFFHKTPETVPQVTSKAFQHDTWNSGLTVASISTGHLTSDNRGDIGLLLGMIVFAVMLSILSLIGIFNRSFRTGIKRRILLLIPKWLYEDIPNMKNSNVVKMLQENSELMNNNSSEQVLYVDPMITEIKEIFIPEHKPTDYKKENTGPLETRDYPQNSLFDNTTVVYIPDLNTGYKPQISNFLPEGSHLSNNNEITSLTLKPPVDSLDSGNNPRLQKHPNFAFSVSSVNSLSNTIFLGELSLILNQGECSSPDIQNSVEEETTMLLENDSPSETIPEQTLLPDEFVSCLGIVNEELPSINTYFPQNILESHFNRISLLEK
In words: ELISA assay for specific human IL-23R inhibitors. On the procedure: (§1) A 384-well plate was coated with 50 µl/well of human IL-23 at a final concentration of […] and incubated overnight at 4°C. The wells were washed 3 times with […] wash buffer and blocked with […] blocking buffer for 60 minutes at room temperature and washed again. 20 µl of serially diluted test peptides was added to each well and subsequently 20 µl of recombinant human IL-23R-Fc chimera at final concentration of […]. The plate was incubated for 60 minutes at room temperature. After the wells were washed, bound IL-23R-Fc was detected with goat anti-hu- IgG 1 -HRP antibody. Signals were visualized with QuantaBlu Fluorogenic Peroxidase Substrate.

For test [2], the target named is Interleukin-23 subunit alpha/receptor (UniProt Q5VWK5). In words: ELISA assay for specific human IL-23R inhibitors. On the procedure:
as §1

In test [1], `COc1ccc(C[C@@H]2NC(=O)[C@H](CCCNC(=N)N)NC(=O)[C@H](CCC(N)=O)NC(=O)[C@H](Cc3c[nH]c4ccccc34)NC(=O)C([C@@H](C)O)NC(=O)[C@H](CC(N)=O)NC(=O)[C@H](NC(C)=O)CCCCNC(=O)C[C@H](C(=O)N[C@@H](CC(N)=O)C(=O)N[C@@H](CC(N)=O)C(=O)O)NC(=O)C(C)(C)NC(=O)[C@H](Cc3ccc4ccccc4c3)NC2=O)cc1` (some centres undefined) [WO2025051920, Example 3] displayed a concentration for half-maximal inhibition (IC50) of 1.55 nM. In test [1], `COc1ccc(C[C@@H]2NC(=O)[C@H](CCCNC(=N)N)NC(=O)[C@H](CCC(N)=O)NC(=O)[C@H](Cc3c[nH]c4ccccc34)NC(=O)C([C@@H](C)O)NC(=O)[C@H](CC(N)=O)NC(=O)[C@H](NC(C)=O)CCCCNC(=O)CC[C@H](C(=O)N[C@@H](CC(N)=O)C(=O)N[C@@H](CC(N)=O)C(=O)O)NC(=O)C(C)(C)NC(=O)[C@H](Cc3ccc4ccccc4c3)NC2=O)cc1` (some centres undefined) [WO2025051920, Example 5] had an IC50 of 1.95 nM. This IC50 and that of the compound before are within 1.5-fold of each other.

For the compound `COc1ccc(C[C@@H]2NC(=O)[C@H](CCCNC(=N)N)NC(=O)[C@H](CCC(N)=O)NC(=O)[C@H](Cc3c[nH]c4ccccc34)NC(=O)C([C@@H](C)O)NC(=O)[C@H](CC(N)=O)NC(=O)C(NC(C)=O)CCCCNC(=O)C[C@H](C(=O)N[C@@H](CC(N)=O)C(=O)N[C@@H](CC(N)=O)C(=O)O)NC(=O)C(C)(C)NC(=O)[C@H](Cc3cccc4ccccc34)NC2=O)cc1` (some centres undefined) [WO2025051920, Example 9], in test [1], the IC50 is 3.55 nM. The same measure, in the same setting: for `COc1ccc(C[C@@H]2NC(=O)[C@H](CCCNC(=N)N)NC(=O)[C@H](CCC(N)=O)NC(=O)[C@H](Cc3c[nH]c4ccccc34)NC(=O)C([C@@H](C)O)NC(=O)[C@H](CC(N)=O)NC(=O)C(NC(C)=O)CCCCNC(=O)C[C@H](C(=O)N[C@@H](CC(N)=O)C(=O)N[C@@H](CC(N)=O)C(=O)O)NC(=O)C(C)(C)NC(=O)[C@H](Cc3ccc4ccccc4c3)NC2=O)cc1` (some centres undefined) [WO2025051920, Example 15] the value was 1.04 nM; for `COc1ccc(C[C@@H]2NC(=O)[C@H](CCCNC(=N)N)NC(=O)[C@H](CCC(N)=O)NC(=O)[C@H](Cc3cn(C)c4ccccc34)NC(=O)[C@H]([C@@H](C)O)NC(=O)[C@H](CC(N)=O)NC(=O)[C@H](NC(C)=O)CCCCNC(=O)C[C@@H](C(=O)N[C@@H](CC(N)=O)C(=O)N[C@@H](CC(N)=O)C(=O)O)NC(=O)[C@H](CC(C)C)NC(=O)[C@H](Cc3cccc4ccccc34)NC2=O)cc1` [WO2025051920, Example 23], 12 nM; for `COc1ccc(C[C@@H]2NC(=O)[C@H](CCCNC(=N)N)NC(=O)[C@H](CCC(N)=O)NC(=O)[C@H](Cc3cn(C)c4ccccc34)NC(=O)[C@H]([C@@H](C)O)NC(=O)[C@H](CC(N)=O)NC(=O)[C@H](NC(C)=O)CCCCNC(=O)C[C@@H](C(=O)N[C@@H](CC(N)=O)C(=O)N[C@@H](CC(N)=O)C(=O)O)NC(=O)[C@H](CC(C)C)NC(=O)[C@H](Cc3ccc4ccccc4c3)NC2=O)cc1` [WO2025051920, Example 24], 1.21 nM.

Consider `COc1ccc(C[C@@H]2NC(=O)[C@H](C)NC(=O)[C@H](CCC(N)=O)NC(=O)[C@H](Cc3c[nH]c4ccccc34)NC(=O)C([C@@H](C)O)NC(=O)[C@H](CC(N)=O)NC(=O)C(N)CCCCNC(=O)C[C@H](C(=O)N[C@@H](CC(N)=O)C(=O)N[C@@H](CC(N)=O)C(=O)O)NC(=O)C(C)(C)NC(=O)[C@H](Cc3ccc4ccccc4c3)NC2=O)cc1` (some centres undefined) [WO2025051920, Example 44], for which half-maximal inhibition in test [1] (IC50) was put at 4.66 nM. `COc1ccc(C[C@@H]2NC(=O)[C@H](C)NC(=O)[C@H](CCC(N)=O)NC(=O)[C@H](Cc3c[nH]c4ccccc34)NC(=O)[C@H]([C@@H](C)O)NC(=O)[C@H](CCCNC(=N)N)NC(=O)[C@H](NC(C)=O)CCCCNC(=O)C[C@@H](C(=O)N[C@@H](CC(N)=O)C(=O)N[C@@H](CC(N)=O)C(=O)O)NC(=O)C(C)(C)NC(=O)[C@H](Cc3ccc4ccccc4c3)NC2=O)cc1` [WO2025051920, Example 45] displayed a concentration for half-maximal inhibition (IC50) in test [2] of 0.96 nM.

`COc1ccc(C[C@@H]2NC(=O)[C@H](C)NC(=O)[C@H](CCC(N)=O)NC(=O)[C@H](Cc3c[nH]c4ccccc34)NC(=O)[C@H](CCCNC(=N)N)NC(=O)[C@H](CC(N)=O)NC(=O)[C@H](NC(C)=O)CCCCNC(=O)C[C@@H](C(=O)N[C@@H](CC(N)=O)C(=O)N[C@@H](CC(N)=O)C(=O)O)NC(=O)C(C)(C)NC(=O)[C@H](Cc3ccc4ccccc4c3)NC2=O)cc1` [WO2025051920, Example 46] had an IC50 in test [2] of 1.38 nM. On the same count and under the same terms, for `COc1ccc(C[C@@H]2NC(=O)[C@H](C)NC(=O)[C@H](CCC(N)=O)NC(=O)[C@H](Cc3c[nH]c4ccccc34)NC(=O)[C@H]([C@@H](C)O)NC(=O)[C@H](CC(N)=O)NC(=O)[C@H](NC(C)=O)CCCCNC(=O)C[C@@H](C(=O)N[C@@H](CC(N)=O)C(=O)N[C@@H](CC(N)=O)C(=O)O)NC(=O)[C@H](CCCNC(=N)N)NC(=O)[C@H](Cc3ccc4ccccc4c3)NC2=O)cc1` [WO2025051920, Example 47] the value was 1.34 nM.

As for `COc1ccc(C[C@@H]2NC(=O)[C@H](C)NC(=O)[C@H](CCC(N)=O)NC(=O)[C@H](Cc3c[nH]c4ccccc34)NC(=O)[C@H]([C@@H](C)O)NC(=O)[C@H](CC(N)=O)NC(=O)[C@H](NC(C)=O)CCCCNC(=O)C[C@@H](C(=O)N[C@@H](CC(N)=O)C(=O)N[C@@H](C)C(=O)O)NC(=O)C(C)(C)NC(=O)[C@H](Cc3ccc4ccccc4c3)NC2=O)cc1` [WO2025051920, Example 48], the half-inhibitory concentration (IC50) in test [2] amounted to 2.06 nM. Still for that read-out and setting: the value for `COc1ccc(C[C@@H]2NC(=O)[C@H](C)NC(=O)[C@H](CCC(N)=O)NC(=O)[C@H](Cc3c[nH]c4ccccc34)NC(=O)[C@H]([C@@H](C)O)NC(=O)[C@H](CC(N)=O)NC(=O)[C@H](NC(C)=O)CCCCNC(=O)C[C@@H](C(=O)N[C@@H](C)C(=O)N[C@@H](CC(N)=O)C(=O)O)NC(=O)C(C)(C)NC(=O)[C@H](Cc3ccc4ccccc4c3)NC2=O)cc1` [WO2025051920, Example 49] was 3.13 nM; that for `COc1ccc(C[C@@H]2NC(=O)[C@H](C)NC(=O)[C@H](CCC(N)=O)NC(=O)[C@H](Cc3c[nH]c4ccccc34)NC(=O)[C@H]([C@@H](C)O)NC(=O)[C@H](CC(N)=O)NC(=O)[C@H](NC(C)=O)CCCCNC(=O)C[C@@H](C(=O)N[C@@H](C)C(=O)N[C@@H](C)C(=O)O)NC(=O)C(C)(C)NC(=O)[C@H](Cc3ccc4ccccc4c3)NC2=O)cc1` [WO2025051920, Example 50] was 8.29 nM. The same measure, in the same setting: for `COc1ccc(C[C@@H]2NC(=O)[C@H](C)NC(=O)[C@H](CCC(N)=O)NC(=O)[C@H](Cc3c[nH]c4ccccc34)NC(=O)[C@H]([C@@H](C)O)NC(=O)[C@H](CC(N)=O)NC(=O)[C@H](NC(C)=O)CCCCNC(=O)C[C@@H](C(=O)N[C@@H](CC(N)=O)C(=O)N[C@@H](CC(N)=O)C(N)=O)NC(=O)C3(CCOCC3)NC(=O)[C@H](Cc3ccc4ccccc4c3)NC2=O)cc1` [WO2025051920, Example 51] (Ac-[dK]NTWQAY(Me)[2Nal][Thp]DNN-NH2; lactam 1-10) the value was 0.78 nM.
